Laboratory results from article PMC6988309, “Preclinical efficacy for a novel tyrosine kinase inhibitor, ArQule 531 against acute myeloid leukemia” (Journal of Hematology & Oncology, 2020).

Tests used:
MV4-11 = experiment: MTS proliferation assay 72 h, MV4-11; assay type: cell-based; conditions: Homo sapiens, MV4-11, read-out: Estimated absolute µM IC50 (95% CI), 4-parameter logistic model
Description: A total of 5000–30,000 cells from the lines above were treated in a 96-well plate for 72 h. CellTiter 96 Aqueous MTS reagent (Promega, Madison, WI) was added to cells followed by a 3-h incubation at 37 °C, 5% CO2. The absorbance was measured at 490 nm using DTX 880 plate reader and the half maximal inhibitory concentration (IC50) was calculated using GraphPad Prism 7 (GraphPad Software, La Jolla, CA) and SAS/STAT software (SAS v9.4 for Windows, SAS Institute, Inc., Cary, NC).

Ba/F3 FLT3-D835H = experiment: MTT proliferation assay 72 h, Ba/F3 FLT3-D835H; assay type: cell-based, murine; conditions: Mus musculus, BaF3, read-out: Estimated absolute µM IC50 and 95% CI
Description: For the MOLM-13 resistant and the Ba/F3-FLT3-ITD/TKD cell lines, cells were treated for 72 h and cell viability was evaluated using MTT assay (Roche Diagnostics. Mannheim. Germany) according to the manufacturer’s instructions.

[1] = tested on: MOLM-13 disseminated AML xenograft; experiment: MOLM-13 disseminated xenograft, single agent study (NSG mice); assay type: in vivo
Description: (§1) All experiments were conducted after approval of The Ohio State University Institutional Animal Care and Use Committee. Mice were randomized and enrolled for daily oral gavage (Q.D.P.O) treatment of vehicle or 50 mg/kg ARQ 531. Mice were treated until reaching early removal criteria (ERC) defined as 20% weight loss, lethargy, hind limb paralysis, moribund, anorexia, dehydration, hunched posture, severe diarrhea, breathing difficulties, or any abnormal neurological symptoms.
A total of 10,000 luciferase expressing MOLM-13 cells were engrafted via tail vein injection in NSG mice (The Jackson Laboratory, Bar Harbor, ME) for the single agent ARQ 531 study or NCG mice (Charles River Laboratories, Wilmington, MA) for the ARQ 531 + venetoclax (ARQ + Ven) combination study. For the first single agent ARQ 531 study, mice were treated 7 days post-engraftment. Due to the aggressiveness of the MOLM-13 model, mice were treated 4 days post-engraftment in the ARQ + Ven combination study. In both studies, mice were treated daily via oral gavage with vehicle (10% absolute alcohol, 10% Cremophor-EL, 80% saline) or 50 mg/kg ARQ 531, and 75 mg/kg venetoclax ± 50 mg/kg ARQ 531 for the combination study. Weekly in vivo imaging was performed using In Vivo Imaging System (IVIS) imager (PerkinElmer, Waltham, MA).
Kaplan–Meier survival curve in the MOLM-13 disseminated AML xenograft model. […]

[2] = tested on: MOLM-13 disseminated AML xenograft; experiment: MOLM-13 disseminated xenograft, ARQ + Ven combination study (NCG mice); assay type: in vivo; conditions: 50 mg/kg ARQ 531 and/or 75 mg/kg venetoclax Q.D.P.O from 4 days post-engraftment until ERC; vehicle 25 days
Description: as §1, with “symptoms. […]” for “symptoms.”
Fig. 7 BCL2 inhibition improves ARQ 531 in vivo activity. a Kaplan–Meier survival curve in the MOLM-13 xenograft after mice were treated with vehicle (N = 9) or 50 mg/kg ARQ 531 Q.D.P.O (N = 9) or 75 mg/kg venetoclax Q.D.P.O (N = 10) or 50 mg/kg ARQ 531 and 75 mg/kg venetoclax combination Q.D.P.O (N = 10) at 4 days post engraftment until ERC. b Noninvasive serial whole body bioluminescence imaging of ventral view to monitor leukemia progression and regression post treatment. Mice were injected with 150 mg/kg Firefly D-Luciferin for evaluation of tumor burden as determined by whole body bioluminescence imaging using IVIS imager

[3] = tested on: phosphorylated SFK, FLT3, STAT5, and ERK; experiment: Immunoblot of phosphorylated SFK, FLT3, STAT5 and ERK in FLT3-ITD cell lines; assay type: cell-based, human; conditions: MOLM-13 and MV4-11, serum starved, 10-min treatment
Description: Cell lines were serum starved overnight followed by a 10-min treatment. Cells were washed in ice-cold PBS then lysed in 1X Cell Lysis Buffer (CST) supplemented with proteinase and phosphatase inhibitors cocktail (Roche). Pierce BCA Protein Assay was used to quantify the protein lysates (Thermo Fisher Scientific, Waltham, MA). For Immunoblotting, 15–25 μg of protein lysate was prepared in 2X or 4X Laemmeli’s sample buffer (Bio-Rad Laboratories, Hercules, CA) and heated for 5 min at 100 °C. Samples were separated on 8% sodium dodecyl sulfate polyacrylamide gel and transferred onto nitrocellulose membrane (Bio-Rad Laboratories, Hercules, CA). The membranes were blocked for 1 h in Blocker BLOTTO Blocking Buffer (Thermo Fisher Scientific, Waltham, MA) or 5% non-fat milk followed by overnight incubation at 4 °C with primary antibody followed by HRP-conjugated secondary antibodies and visualized with chemiluminescent Pierce ECL Substrate (Thermo Fisher Scientific, Waltham, MA) on X-ray films.
Immunoblot analysis for MOLM-13, MV4-11, and OCI-AML3 AML cell lines (representative of 2-3 independent blots). […] Twenty to 25 μg of total protein lysate was loaded per lane.

[4] = cited from earlier work
MOLM-13 = experiment: MTS proliferation assay 72 h, MOLM-13
Description: A total of 5000–30,000 cells from the lines above were treated in a 96-well plate for 72 h. CellTiter 96 Aqueous MTS reagent (Promega, Madison, WI) was added to cells followed by a 3-h incubation at 37 °C, 5% CO2. The absorbance was measured at 490 nm using DTX 880 plate reader and the half maximal inhibitory concentration (IC50) was calculated using GraphPad Prism 7 (GraphPad Software, La Jolla, CA) and SAS/STAT software (SAS v9.4 for Windows, SAS Institute, Inc., Cary, NC). For the MOLM-13 resistant and the Ba/F3-FLT3-ITD/TKD cell lines, cells were treated for 72 h and cell viability was evaluated using MTT assay (Roche Diagnostics. Mannheim. Germany) according to the manufacturer’s instructions.

O=C(c1ccc(Oc2ccccc2)cc1Cl)c1c[nH]c2ncnc(N[C@@H]3CC[C@@H](CO)OC3)c12 [ARQ 531]
IC50 (MV4-11): 1.45 µM | IC50 (Ba/F3 FLT3-D835H): 1.74 µM | median survival ([1]; 50 mg/kg Q.D.P.O from 7 days post-engraftment until ERC, vehicle 21 days): 23 days | median survival advantage vs vehicle ([1]; 50 mg/kg Q.D.P.O, log-rank p value = 0.002): 2 days | survival [2]: 27 days | concentration inhibiting phosphorylated levels of SFK, FLT3, STAT5, and ERK [3]: ≤ 500 nM | Cmax ([4]; 65 mg daily dose): ~3000 nM | concentration steady-state levels ([4]; ongoing phase 1 dose escalation trial in relapsed or refractory CLL): exceeding 1 μM | IC50 (MOLM-13; Homo sapiens, MOLM-13, 72 h, read-out: Estimated absolute µM IC50 (95% CI)): 0.69 µM | in vitro anti-proliferative activity (MOLM-13; MOLM-13, 1 µM, 72 hours MTS (ibrutinib 1 hour washout)): demonstrated in vitro anti-proliferative activity
